Results from patent US8273562B2, “Method for producing 4-hydroxy-L-isoleucine” (Ajinomoto Co., Inc., priority 2006, dated 2012).

What was measured:
human pancreatic islets = details: stimulating effect dependent on plasma glucose concentrations; cited from earlier work
[1] = system: isolated perfused rat pancreas; details: stimulating effect dependent on plasma glucose concentrations; cited from earlier work
[2] = IDO activity assay in crude cell lysate of recombinant E. coli strains; assay type: biochemical, Escherichia coli
Method: 2.4. The IDO activity assay in crude cell lysate of TG1[pMW119-IDO(Lys, 23) and TG1[pMW119-IDO(Lys, 32): To investigate the IDO activity in crude cell lysates of recombinant E. coli strains, the following procedures were carried out. Cells from 5 ml of culture were harvested by centrifugation at 4° C., re-suspended in 0.5 ml of buffer A*(50 mM TRIZMA, 5% glycerol, 1 mM EDTA, 1 mM DTT, pH 7 adjusted by HCl) and disrupted by sonication at 4° C. The reaction mixture (50 μl) contained 50 mM HEPES pH 7.0, 5 mM Ile, 0.5 mM α-ketoglutarate, 5 mM ascorbate, 5 mM FeSO4, and an aliquot of the protein preparation. The reaction was incubated at 34° C. for 1 hour with shaking. The synthesized 4HIL was detected using TLC or HPLC analysis as described in Example 4.

[3] = Optimum pH, optimum temperature and temperature stability of purified L-Ile hydroxylase; assay type: biochemical, Bacillus thuringiensis; details: enzyme solution pH 7.0 incubated 1 hour at 0 to 70° C.
Method: By using L-Ile hydroxylase prepared as described in Example 2, pH dependency on the producing of the 4-hydroxyisoleucine was evaluated. The enzymatic reaction solution contained 5 mM L-Ile, 5 mM Fe^2+, 5 mM 2-oxoglutaric acid, 5 mM ascorbic acid and 200 mM GTA (pH 3 to 12). The reaction temperature was 30° C. […] Production of a large amount was confirmed at pH 4 to 8, and production of the most 4-hydroxyisoleucine was confirmed at pH 5 to 8.
By using L-Ile hydroxylase prepared as described in Example 2, the optimum temperature of the 4-hydroxyisoleucine production activity was evaluated. The enzymatic reaction solution contained 5 mM Ile, 5 mM Fe^2+, 5 mM 2-oxoglutaric acid, 5 mM ascorbic acid, and 100 mM HEPES (pH 6). […] High production was confirmed for the temperature range of 0 to 40° C.
By using L-Ile hydroxylase prepared as described in Example 2, the temperature stability during production of 4-hydroxyisoleucine was evaluated. The enzyme solution at pH 7.0 was incubated at 0 to 70° C. for 1 hour, and then the Ile hydroxylation activity was measured. The enzymatic reaction solution contained 5 mM Ile, 5 mM Fe^2+, 5 mM 2-oxoglutaric acid, 5 mM ascorbic acid, and 100 mM HEPES (pH 6), and the reaction temperature was 30° C. These values are relative to the storage temperature which produced the maximum amount of hydroxyisoleucine, which was set as 100%. […]

In the case of `C[C@@H]([C@H](C)O)[C@H](N)C(=O)O` [4-Hydroxy-L-isoleucine, (2S,3R,4S)-4-hydroxy-L-isoleucine], the insulinotropic activity (human pancreatic islets) is listed as “insulinotropic activity” and the insulinotropic activity [1] is listed as “insulinotropic activity”.

B1: L-Ile hydroxylase: L-isoleucine dioxygenase purified from Bacillus thuringiensis strain 2-e-2, SEQ ID NO: 2 (protein, listed as Bacillus thuringiensis)
chain: KMSGFSIEEKVHEFESKGFLEISNEIFLQEEENHSLLTQAQLDYYNLEDDAYGECRARSYSRYIKYVDSPDYILDNSNDYFQSKEYNYDDGGKVRQFNSINDSFLCNPLIQNIVRFDTEFAFKTNIIDKSKDLIIGLHQVRYKATKERPSFSSPIWLHKDDEPVVFLHLMNLSNTAIGGDNLIANSPREINQFISLKEPLETLVFGQKVFHAVTPLGTECSTEAFRDILLVTFSYKETK
In the case of B1, the “IDO activity in comparison with IDO(Lys,32)” value [2] is reported as 5 times and the “temperature at which enzyme was inactivated” value [3] is reported as no less than 60 °C.
